According to patent publication US20230017045A1, “PYRIDINE AND PYRIMIDINE CARBOXYLATE HERBICIDES AND METHODS OF USE THEREOF” (Dow AgroSciences LLC, priority 2017, published 2023):
Where two headings read alike, the source gives them in different places.

Test system: test plant species
Test: Post-emergent herbicidal activity test (greenhouse, foliar spray, visual growth reduction)
Format: in vivo
Details: post-emergence, 336 h, 140 g ai/ha
Method in brief: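 Greenhouse plants at first–second true leaf stage sprayed overhead at 187 L/ha with compound in acetone/water/isopropanol/DMSO/crop oil/X-77 carrier; controls received solvent blank. Injury rated visually after 14 d on a 0–100% scale versus untreated and control plants, converted to growth reduction.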

[1] = ECHCG: barnyardgrass (Echinochloa crus-galli), 14 days after application, read-out: Visual Growth Reduction (%) 14 Days After Application, ECHCG
[2] = IPOHE: ivy-leaf morning glory (Ipomoea hederacea), 14 days after application, read-out: Visual Growth Reduction (%) 14 Days After Application, IPOHE
[3] = KCHSC: kochia (Bassia scoparia), 14 days after application, read-out: Visual Growth Reduction (%) 14 Days After Application, KCHSC
[4] = ORYSA: rice (Oryza sativa), 14 days after application, read-out: Visual Growth Reduction (%) 14 Days After Application, ORYSA
[5] = SETFA: giant foxtail (Setaria faberi), 14 days after application, read-out: Visual Growth Reduction (%) 14 Days After Application, SETFA
[6] = SORVU: grain sorghum (Sorghum vulgare), 14 days after application, read-out: Visual Growth Reduction (%) 14 Days After Application, SORVU
[7] = STEME: common chickweed (Stellaria media), 14 days after application, read-out: Visual Growth Reduction (%) 14 Days After Application, STEME
[8] = TRZAS: wheat, spring (Triticum aestivum), 14 days after application, read-out: Visual Growth Reduction (%) 14 Days After Application, TRZAS
[9] = blackgrass (Alopecurus myosuroides), 14 Days After Application, read-out: Visual Growth Reduction (%) ALOMY
[10] = canada thistle (Cirsium arvense), 14 Days After Application, read-out: Visual Growth Reduction (%) CIRAR
[11] = crabgrass (Digitaria sanguinalis), 14 Days After Application, read-out: Visual Growth Reduction (%) DIGSA
[12] = lambsquarters (Chenopodium album), 14 Days After Application, read-out: Visual Growth Reduction (%) CHEAL
[13] = redroot pigweed (Amaranthus retroflexus), 14 Days After Application, read-out: Visual Growth Reduction (%) AMARE
[14] = wild oat (Avena fatua), 14 Days After Application, read-out: Visual Growth Reduction (%) AVEFA
[15] = yellow nutsedge (Cyperus esculentus), 14 Days After Application, read-out: Visual Growth Reduction (%) CYPES

Compound | pest or weed control at 140 g/ha [1] | pest or weed control at 140 g/ha [2] | pest or weed control at 140 g/ha [3] | pest or weed control at 140 g/ha [4] | pest or weed control at 140 g/ha [5] | pest or weed control at 140 g/ha [6] | pest or weed control at 140 g/ha [7] | pest or weed control at 140 g/ha [8] | pest or weed control at 140 g/ha [9] | pest or weed control at 140 g/ha [10] | pest or weed control at 140 g/ha [11] | pest or weed control at 140 g/ha [12] | pest or weed control at 140 g/ha [13] | pest or weed control at 140 g/ha [14] | pest or weed control at 140 g/ha [15]
COc1cc2c(cc1-c1ccc(Cl)c(C(=O)O)n1)OC(F)(F)O2 [F356, 3-Chloro-6-(2,2-difluoro-6-methoxybenzo[d][1,3]dioxol-5-yl)picolinic acid] | 0 to 29% | 95 to 100% | 0 to 29% | 0 to 29% | 0 to 29% | 30 to 44% | 0 to 29% | 0 to 29% | 0 to 29% | 0 to 29% | 0 to 29% | 60 to 74% | 0 to 29% | 0 to 29% | 0 to 29%
COC(=O)c1nc(-c2ccc(C=O)c(F)c2OC)c(F)cc1Cl [F357, methyl 3-chloro-5-fluoro-6-(3-fluoro-4-formyl-2-methoxyphenyl)picolinate] | 0 to 29% | 0 to 29% | 0 to 29% | 0 to 29% | 0 to 29% | 0 to 29% | 0 to 29% | 0 to 29% | 0 to 29% | 0 to 29% | 0 to 29% | 0 to 29% | 0 to 29% | 0 to 29% | 0 to 29%
COC(=O)c1nc(-c2ccc(N)cc2Cl)c(F)cc1Cl [F358, Methyl 6-(4-amino-2-chlorophenyl)-3-chloro-5-fluoropicolinate] | 0 to 29% | 0 to 29% | 0 to 29% | 0 to 29% | 0 to 29% | 0 to 29% | 0 to 29% | 0 to 29% | 0 to 29% | 0 to 29% | 0 to 29% | 0 to 29% | 0 to 29% | 0 to 29% | 0 to 29%
COC(=O)c1nc(-c2cc(F)c(C(F)(F)F)cc2OC)c(F)cc1Cl [F359, Methyl 3-chloro-5-fluoro-6-(5-fluoro-2-methoxy-4-(trifluoromethyl)phenyl)picolinate] | 95 to 100% | 95 to 100% | 85 to 94% | 0 to 29% | 95 to 100% | 85 to 94% | 0 to 29% | 60 to 74% | 30 to 44% | 75 to 84% | 30 to 44% | 95 to 100% | 95 to 100% | 75 to 84% | 0 to 29%
COC(=O)c1nc(-c2cc(C)c(C(F)(F)F)cc2F)c(F)cc1Cl [F360, Methyl 3-chloro-5-fluoro-6-(2-fluoro-5-methyl-4-(trifluoromethyl)phenyl)picolinate] | 0 to 29% | 95 to 100% | 45 to 59% | 0 to 29% | 0 to 29% | 0 to 29% | 0 to 29% | 0 to 29% | 0 to 29% | 0 to 29% | 0 to 29% | 95 to 100% | 95 to 100% | 0 to 29% | 0 to 29%
COC(=O)c1nc(-c2cc(C)c(C(F)(F)F)cc2F)ccc1Cl [F361, Methyl 3-chloro-6-(2-fluoro-5-methyl-4-(trifluoromethyl)phenyl)picolinate] | 0 to 29% | 75 to 84% | 0 to 29% | 0 to 29% | 0 to 29% | 0 to 29% | 0 to 29% | 0 to 29% | 0 to 29% | 0 to 29% | 0 to 29% | 85 to 94% | 45 to 59% | 0 to 29% | 0 to 29%
COC(=O)c1nc(-c2cc(F)c(C(F)(F)F)cc2OC)ccc1Cl [F362, Methyl 3-chloro-6-(5-fluoro-2-methoxy-4-(trifluoromethyl)phenyl)picolinate] | 0 to 29% | 95 to 100% | 30 to 44% | 0 to 29% | 60 to 74% | 85 to 94% | 0 to 29% | 0 to 29% | 0 to 29% | 0 to 29% | 45 to 59% | 85 to 94% | 95 to 100% | 0 to 29% | 0 to 29%
COc1cc(C(F)(F)F)ccc1-c1nc(C(=O)OCc2ccccc2)c(Cl)cc1F [F363, Benzyl 3-chloro-5-fluoro-6-(2-methoxy-4-(trifluoromethyl)phenyl)picolinate] | 95 to 100% | 95 to 100% | 75 to 84% | 30 to 44% | 85 to 94% | 95 to 100% | 30 to 44% | 75 to 84% | 0 to 29% | 85 to 94% | 0 to 29% | 95 to 100% | 95 to 100% | 85 to 94% | 0 to 29%
COC(=O)c1nc(-c2ccc(OS(=O)(=O)C(F)(F)F)cc2Cl)ccc1Cl [F364, methyl 3-chloro-6-(2-chloro-4-(((trifluoromethyl)sulfonyl)oxy)phenyl)picolinate] | 0 to 29% | 85 to 94% | 0 to 29% | 0 to 29% | 60 to 74% | 85 to 94% | 0 to 29% | 0 to 29% | 0 to 29% | 60 to 74% | 75 to 84% | 75 to 84% | 60 to 74% | 0 to 29% | 0 to 29%
COC(=O)c1nc(-c2ccc(OC)cc2)c(F)cc1Cl [F365, Methyl 3-chloro-5-fluoro-6-(4-methoxyphenyl) picolinate] | 0 to 29% | 0 to 29% | 0 to 29% | 0 to 29% | 0 to 29% | 0 to 29% | 0 to 29% | 0 to 29% | 0 to 29% | 0 to 29% | 0 to 29% | 0 to 29% | 0 to 29% | 0 to 29% | 0 to 29%
COc1cc(C(F)(F)F)ccc1-c1ncc(Cl)c(C(=O)O)n1 [F366, 5-Chloro-2-(2-methoxy-4-(trifluoromethyl)phenyl)pyrimidine-4-carboxylic acid] | 75 to 84% | 95 to 100% | 0 to 29% | 0 to 29% | 75 to 84% | 75 to 84% | 0 to 29% | 0 to 29% | 0 to 29% | 30 to 44% | 75 to 84% | 85 to 94% | 75 to 84% | 0 to 29% | 0 to 29%
